Key:
Assay in all cases: cells
NCI-H520 = type: functional, cell-based; settings: Homo sapiens;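 also: growth inhibition of NCI-H520 cells, measured by a cell viability assay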
Description: SANGER: Inhibition of human NCI-H520 cell growth in a cell viability assay.

EW-24 = type: functional, cell-based, Homo sapiens; settings: Homo sapiens, EW-24;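 also: human EW-24 cancer cell line, growth inhibition read out via a cell viability assay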
Description: SANGER: Inhibition of human EW-24 cell growth in a cell viability assay.

CAL-72 = type: functional, cell-based; settings: Homo sapiens;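 also: cell viability assay measuring inhibition of proliferation in the CAL-72 cell line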
Description: SANGER: Inhibition of human CAL-72 cell growth in a cell viability assay.

DU-145 = type: functional, cell-based; settings: Homo sapiens
Description: SANGER: Inhibition of human DU-145 cell growth in a cell viability assay.

ACHN = type: functional, cell-based; settings: Homo sapiens;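 also: cell viability read-out used to gauge how strongly growth of human ACHN cells is suppressed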
Description: SANGER: Inhibition of human ACHN cell growth in a cell viability assay.

HCC70 = type: functional, cell-based; settings: Homo sapiens;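 also: cell viability assay measuring how strongly the compound suppresses proliferation of HCC70 cells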
Description: SANGER: Inhibition of human HCC70 cell growth in a cell viability assay.

CAMA-1 = type: functional, cell-based; settings: Homo sapiens;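 also: growth inhibition of CAMA-1 cells, read out with a cell viability assay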
Description: SANGER: Inhibition of human CAMA-1 cell growth in a cell viability assay.

LN-405 = type: functional, cell-based; settings: Homo sapiens
Description: SANGER: Inhibition of human LN-405 cell growth in a cell viability assay.

NCI-H1573 = type: functional, cell-based; settings: Homo sapiens;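 also: growth inhibition of NCI-H1573 cells, read out with a cell viability assay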
Description: SANGER: Inhibition of human NCI-H1573 cell growth in a cell viability assay.

H4 = type: functional, cell-based; settings: Homo sapiens
Description: SANGER: Inhibition of human H4 cell growth in a cell viability assay.

NCI-H2087 = type: functional, cell-based; settings: Homo sapiens;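 also: growth inhibition determined with a cell viability readout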
Description: SANGER: Inhibition of human NCI-H2087 cell growth in a cell viability assay.

FTC-133 = type: functional, cell-based; settings: Homo sapiens
FaDu = type: functional, cell-based; settings: Homo sapiens;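 also: cell viability readout of growth inhibition in FaDu cells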
Description: SANGER: Inhibition of human FADU cell growth in a cell viability assay.

Capan-2 = type: functional, cell-based; settings: Homo sapiens;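 also: Capan-2 cell growth inhibition, read out with a viability assay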
Description: SANGER: Inhibition of human Capan-2 cell growth in a cell viability assay.

SW948 = type: functional, cell-based; settings: Homo sapiens;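 also: growth inhibition of SW948 cells, read out with a cell viability assay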
Description: SANGER: Inhibition of human SW948 cell growth in a cell viability assay.

NCI-H727 = type: functional, cell-based; settings: Homo sapiens;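 also: growth inhibition of human NCI-H727 cells, read out with a cell viability assay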
Description: SANGER: Inhibition of human NCI-H727 cell growth in a cell viability assay.

MKN-28 = type: functional, cell-based; settings: Homo sapiens;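 also: cell viability assay read-out, IC50 reflects suppression of growth of human MKN-28 cells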
Description: SANGER: Inhibition of human MKN28 cell growth in a cell viability assay.

COLO-678 = type: functional, cell-based; settings: Homo sapiens
Description: SANGER: Inhibition of human COLO-678 cell growth in a cell viability assay.

A2780 = type: functional, cell-based; settings: Homo sapiens;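 also: growth inhibition of A2780 cells, read out with a cell viability assay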
Description: SANGER: Inhibition of human A2780 cell growth in a cell viability assay.

NCI-H1563 = type: functional, cell-based; settings: Homo sapiens;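 also: growth inhibition of human NCI-H1563 cells, read out with a cell viability assay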
Description: SANGER: Inhibition of human NCI-H1563 cell growth in a cell viability assay.

LoVo = type: functional, cell-based; settings: Homo sapiens;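 also: growth inhibition of human LoVo cells, read out with a cell viability assay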
Description: SANGER: Inhibition of human LoVo cell growth in a cell viability assay.

HPAF-II = type: functional, cell-based; settings: Homo sapiens;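 also: growth inhibition of HPAF-II cells, read out with a cell viability assay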
Description: SANGER: Inhibition of human HPAF-II cell growth in a cell viability assay.

J82 = type: functional, cell-based; settings: Homo sapiens;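 also: growth inhibition of J82 cells, read out with a cell viability assay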
Description: SANGER: Inhibition of human J82 cell growth in a cell viability assay.

CAL-33 = type: functional, cell-based; settings: Homo sapiens;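 also: growth inhibition of CAL-33 cells, read out with a cell viability assay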
Description: SANGER: Inhibition of human CAL-33 cell growth in a cell viability assay.

SW1990 = type: functional, cell-based; settings: Homo sapiens;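 also: cell growth inhibition determined with a viability assay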
Description: SANGER: Inhibition of human SW1990 cell growth in a cell viability assay.

TYK-nu = type: functional, cell-based; settings: Homo sapiens;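 also: growth inhibition of human TYK-nu cells, read out by a cell viability assay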
Description: SANGER: Inhibition of human TYK-nu cell growth in a cell viability assay.

COR-L105 = type: functional, cell-based; settings: Homo sapiens;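 also: cell growth inhibition determined with a viability assay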
Description: SANGER: Inhibition of human COR-L105 cell growth in a cell viability assay.

HCC1806 = type: functional, cell-based; settings: Homo sapiens;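 also: growth inhibition of the cancer cell line, determined with a cell viability assay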
Description: SANGER: Inhibition of human HCC1806 cell growth in a cell viability assay.

SCC-25 = type: functional, cell-based; settings: Homo sapiens;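 also: growth inhibition of SCC-25 cells, measured with a cell viability assay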
Description: SANGER: Inhibition of human SCC-25 cell growth in a cell viability assay.

VM-CUB-1 = type: functional, cell-based; settings: Homo sapiens;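 also: cell viability assay measuring growth inhibition of the human VM-CUB-1 cell line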
Description: SANGER: Inhibition of human VM-CUB-1 cell growth in a cell viability assay.

KYSE-150 cell line = type: functional, cell-based; settings: Homo sapiens;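 also: growth inhibition of human KYSE-150 cells, read out with a cell viability assay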
Description: SANGER: Inhibition of human KYSE-150 cell growth in a cell viability assay.

HuTu80 = type: functional, cell-based, Homo sapiens, HUTU-80; settings: Homo sapiens, HuTu80;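 also: growth inhibition of HuTu80 human cells, determined with a cell viability readout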
Description: SANGER: Inhibition of human HUTU-80 cell growth in a cell viability assay.

SAOS-2 = type: functional, cell-based; settings: Homo sapiens;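 also: growth inhibition of human Saos-2 cells determined by a cell viability assay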
Description: SANGER: Inhibition of human Saos-2 cell growth in a cell viability assay.

SK-N-AS = type: functional, cell-based; settings: Homo sapiens;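 also: growth inhibition of human SK-N-AS cells, measured with a cell viability assay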
Description: SANGER: Inhibition of human SK-N-AS cell growth in a cell viability assay.

KYSE-510 = type: functional, cell-based; settings: Homo sapiens;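 also: cell viability readout used to measure how strongly growth of the cell line is suppressed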
Description: SANGER: Inhibition of human KYSE-510 cell growth in a cell viability assay.

A2058 = type: functional, cell-based; settings: Homo sapiens;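 also: reduction of A2058 cell growth, read out with a viability assay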
Description: SANGER: Inhibition of human A2058 cell growth in a cell viability assay.

BPH-1 = type: functional, cell-based; settings: Homo sapiens;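 also: cell viability assay measuring growth inhibition of human BPH-1 cells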
Description: SANGER: Inhibition of human BPH-1 cell growth in a cell viability assay.

LCLC-97TM1 = type: functional, cell-based; settings: Homo sapiens;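 also: cell viability assay measuring growth inhibition of human LCLC-97TM1 cells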
Description: SANGER: Inhibition of human LCLC-97TM1 cell growth in a cell viability assay.

COLO-741 = type: functional, cell-based; settings: Homo sapiens
Description: SANGER: Inhibition of human COLO-741 cell growth in a cell viability assay.

GP5d = type: functional, cell-based; settings: Homo sapiens;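 also: growth inhibition of human GP5d cells, read out with a cell viability assay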
Description: SANGER: Inhibition of human GP5d cell growth in a cell viability assay.

HT1197 = type: functional, cell-based, HT-1197; settings: Homo sapiens
Description: SANGER: Inhibition of human HT-1197 cell growth in a cell viability assay.

769-P = type: functional, cell-based; settings: Homo sapiens
Description: SANGER: Inhibition of human 769-P cell growth in a cell viability assay.

CAL-54 = type: functional, cell-based; settings: Homo sapiens;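 also: growth inhibition of CAL-54 cells, read out by a viability measurement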
Description: SANGER: Inhibition of human CAL-54 cell growth in a cell viability assay.

UMUC3 = type: functional, cell-based; settings: Homo sapiens;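 also: growth inhibition of human UM-UC-3 cells, read out with a cell viability assay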
Description: SANGER: Inhibition of human UM-UC-3 cell growth in a cell viability assay.

MIA PaCa-2 = type: functional, cell-based; settings: Homo sapiens;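 also: growth inhibition of MIA PaCa-2 cells, read out with a cell viability assay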
Description: SANGER: Inhibition of human MIA-PaCa-2 cell growth in a cell viability assay.

D-392MG = type: functional, cell-based; settings: Homo sapiens

Measured: IC50

CC1=C(/C=C/C(C)=C/C=C/C(C)=C/C(=O)O)C(C)(C)CCC1 [TRETINOIN]
7440 nM: BPH-1
729 nM: HCC1806
> 10000 nM: all other assays above

NC(=O)c1ccc(N(C(N)=O)c2c(F)cccc2F)nc1-c1ccc(F)cc1F [VX-702]
146 nM: DU-145
> 2000 nM: all other assays above

From ChEMBL document CHEMBL1201861, “Genomics of Drug Sensitity in Cancer screening data, Wellcome Trust Sanger Institute”
